Active and inactive are the calls of the source.
Columns and labels:
[1] = molecular target: T1, Tyrosine-protein phosphatase non-receptor type 7 (Homo sapiens, UniProt P35236); experiment: inhibitors of human HePTP phosphatase, […], biochemical, absorbance, leukemia target (AID 521); assay type: functional
T1 sequence (P35236 whole entry): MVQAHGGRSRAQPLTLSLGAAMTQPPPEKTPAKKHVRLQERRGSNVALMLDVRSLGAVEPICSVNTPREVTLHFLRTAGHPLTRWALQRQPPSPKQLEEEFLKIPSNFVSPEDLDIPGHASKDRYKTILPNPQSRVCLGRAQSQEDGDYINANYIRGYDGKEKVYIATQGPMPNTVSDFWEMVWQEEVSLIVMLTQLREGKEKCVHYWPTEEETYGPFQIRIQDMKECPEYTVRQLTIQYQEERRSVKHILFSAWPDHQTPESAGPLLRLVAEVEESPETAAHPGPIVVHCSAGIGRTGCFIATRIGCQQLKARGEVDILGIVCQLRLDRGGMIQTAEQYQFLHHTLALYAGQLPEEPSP

[2] = molecular target: T2, Epstein-Barr nuclear antigen 1 (Epstein-Barr virus (strain B95-8) (HHV-4) (Human herpesvirus 4), UniProt P03211); experiment: EBNA-1 inhibitors, dose response, biochemical, fluorescence polarization, 1536-well (AID 2381); design: species or system human gammaherpesvirus 4;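 also: fluorescence polarization of a Cy5 DNA probe bound by EBNA-1 protein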
T2 sequence (P03211 whole entry): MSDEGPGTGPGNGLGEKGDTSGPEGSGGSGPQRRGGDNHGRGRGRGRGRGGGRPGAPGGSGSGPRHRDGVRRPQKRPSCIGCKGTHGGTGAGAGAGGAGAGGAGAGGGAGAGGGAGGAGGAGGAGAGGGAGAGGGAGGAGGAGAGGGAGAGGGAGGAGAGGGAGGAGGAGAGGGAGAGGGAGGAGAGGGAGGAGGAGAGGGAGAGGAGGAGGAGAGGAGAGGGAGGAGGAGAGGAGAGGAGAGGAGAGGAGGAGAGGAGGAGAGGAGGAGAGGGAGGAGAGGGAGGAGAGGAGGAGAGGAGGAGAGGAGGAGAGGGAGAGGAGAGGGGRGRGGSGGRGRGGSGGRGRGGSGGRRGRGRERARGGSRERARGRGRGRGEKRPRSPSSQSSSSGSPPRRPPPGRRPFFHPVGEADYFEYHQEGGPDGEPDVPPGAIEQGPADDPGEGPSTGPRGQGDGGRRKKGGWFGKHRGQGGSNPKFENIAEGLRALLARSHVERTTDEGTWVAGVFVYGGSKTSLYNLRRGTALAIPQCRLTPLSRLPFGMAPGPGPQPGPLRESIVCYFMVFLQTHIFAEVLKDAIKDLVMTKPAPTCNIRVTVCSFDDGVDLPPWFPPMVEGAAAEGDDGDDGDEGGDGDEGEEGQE

[3] = molecular target: T3, Lytic switch protein BZLF1 (Epstein-Barr virus (strain B95-8) (HHV-4) (Human herpesvirus 4), UniProt P03206); experiment: EBV ZTA inhibitors, dose response, counter-screen for EBNA-1 inhibitor project, biochemical, fluorescence polarization, Epstein-Barr virus, 1536-well (AID 2377); design: species or system human gammaherpesvirus 4;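 also: fluorescence polarization of Cy5-labelled ZRE DNA probe bound by purified Zta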
T3 sequence (P03206 whole entry): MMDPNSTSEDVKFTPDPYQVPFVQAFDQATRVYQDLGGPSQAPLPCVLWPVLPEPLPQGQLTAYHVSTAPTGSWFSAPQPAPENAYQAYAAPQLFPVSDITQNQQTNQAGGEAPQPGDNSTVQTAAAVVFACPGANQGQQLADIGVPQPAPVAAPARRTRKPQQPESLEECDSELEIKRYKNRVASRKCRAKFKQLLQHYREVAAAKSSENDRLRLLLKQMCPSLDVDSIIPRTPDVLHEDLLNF

[4] = molecular target: Estrogen receptor beta (Homo sapiens, UniProt Q92731);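 also: recombinant ER-beta bound to coactivator SRC1 peptide in presence of estradiol agonist; inhibitors block coactivator peptide binding and lower the FRET signal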
Estrogen receptor beta, sequence (Q92731 whole entry): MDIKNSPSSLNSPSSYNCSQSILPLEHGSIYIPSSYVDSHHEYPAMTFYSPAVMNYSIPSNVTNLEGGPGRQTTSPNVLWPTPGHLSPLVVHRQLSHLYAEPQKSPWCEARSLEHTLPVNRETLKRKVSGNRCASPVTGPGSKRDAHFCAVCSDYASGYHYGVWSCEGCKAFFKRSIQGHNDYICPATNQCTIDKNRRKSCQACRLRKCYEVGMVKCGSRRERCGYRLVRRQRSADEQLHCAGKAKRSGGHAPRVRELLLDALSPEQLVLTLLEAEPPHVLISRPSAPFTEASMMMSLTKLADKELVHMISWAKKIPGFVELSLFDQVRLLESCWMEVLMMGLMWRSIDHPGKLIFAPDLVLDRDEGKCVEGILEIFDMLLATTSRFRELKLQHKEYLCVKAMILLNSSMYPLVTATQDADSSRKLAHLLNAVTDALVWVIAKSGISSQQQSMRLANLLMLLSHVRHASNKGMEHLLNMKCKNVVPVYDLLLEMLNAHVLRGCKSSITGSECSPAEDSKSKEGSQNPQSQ

[5] = molecular target: T4, Estrogen receptor (Homo sapiens, UniProt P03372);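 also: potency for inhibiting coactivator peptide recruitment to the receptor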
T4 sequence (P03372 whole entry): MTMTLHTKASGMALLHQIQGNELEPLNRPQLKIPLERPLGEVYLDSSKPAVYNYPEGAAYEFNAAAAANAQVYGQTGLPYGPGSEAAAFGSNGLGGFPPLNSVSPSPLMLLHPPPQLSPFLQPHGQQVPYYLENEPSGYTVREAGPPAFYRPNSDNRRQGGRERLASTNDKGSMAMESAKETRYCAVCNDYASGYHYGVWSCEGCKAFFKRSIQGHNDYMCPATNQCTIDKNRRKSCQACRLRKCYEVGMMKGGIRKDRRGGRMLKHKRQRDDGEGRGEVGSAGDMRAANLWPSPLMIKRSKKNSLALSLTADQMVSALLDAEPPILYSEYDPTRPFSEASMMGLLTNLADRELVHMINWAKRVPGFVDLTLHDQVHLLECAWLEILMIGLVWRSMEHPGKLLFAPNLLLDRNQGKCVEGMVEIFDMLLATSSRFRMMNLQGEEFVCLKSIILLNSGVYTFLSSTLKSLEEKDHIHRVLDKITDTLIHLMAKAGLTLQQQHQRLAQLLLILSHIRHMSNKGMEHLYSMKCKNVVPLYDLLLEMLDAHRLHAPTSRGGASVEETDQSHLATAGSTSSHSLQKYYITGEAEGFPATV

[6] = molecular target: Heat shock protein HSP 90-alpha (Homo sapiens, UniProt P07900); experiment: Luminescence-based dose response biochemical high throughput screening assay for inhibitors of the Heat Shock Protein 90 (HSP90). [Related pubchem assays: 1831 (Summary AID.), 1846 (Confirmation screen.), 1789 (Primary screen.)]
[7] = molecular target: FAD-linked sulfhydryl oxidase ALR (Homo sapiens, UniProt P55789); experiment: inhibitors of human ALR sulfhydryl oxidase, dose response, biochemical, H2O2 detection, luminescence, cherry-pick (AID 493248)
FAD-linked sulfhydryl oxidase ALR, sequence (P55789 whole entry): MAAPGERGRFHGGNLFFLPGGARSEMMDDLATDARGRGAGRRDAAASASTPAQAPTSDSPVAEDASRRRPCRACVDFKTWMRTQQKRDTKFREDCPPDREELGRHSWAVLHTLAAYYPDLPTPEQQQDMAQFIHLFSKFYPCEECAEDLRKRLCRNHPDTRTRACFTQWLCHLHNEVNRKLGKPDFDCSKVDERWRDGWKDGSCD

[8] = molecular target: T5, Leucine aminopeptidase (Plasmodium falciparum 3D7, UniProt Q8IL11); experiment: P. falciparum M17LAP inhibitors, primary screen, biochemical, fluorogenic H-Leu-NHMec substrate, 1536-well (AID 1619); assay type: functional
T5 sequence (Q8IL11 whole entry): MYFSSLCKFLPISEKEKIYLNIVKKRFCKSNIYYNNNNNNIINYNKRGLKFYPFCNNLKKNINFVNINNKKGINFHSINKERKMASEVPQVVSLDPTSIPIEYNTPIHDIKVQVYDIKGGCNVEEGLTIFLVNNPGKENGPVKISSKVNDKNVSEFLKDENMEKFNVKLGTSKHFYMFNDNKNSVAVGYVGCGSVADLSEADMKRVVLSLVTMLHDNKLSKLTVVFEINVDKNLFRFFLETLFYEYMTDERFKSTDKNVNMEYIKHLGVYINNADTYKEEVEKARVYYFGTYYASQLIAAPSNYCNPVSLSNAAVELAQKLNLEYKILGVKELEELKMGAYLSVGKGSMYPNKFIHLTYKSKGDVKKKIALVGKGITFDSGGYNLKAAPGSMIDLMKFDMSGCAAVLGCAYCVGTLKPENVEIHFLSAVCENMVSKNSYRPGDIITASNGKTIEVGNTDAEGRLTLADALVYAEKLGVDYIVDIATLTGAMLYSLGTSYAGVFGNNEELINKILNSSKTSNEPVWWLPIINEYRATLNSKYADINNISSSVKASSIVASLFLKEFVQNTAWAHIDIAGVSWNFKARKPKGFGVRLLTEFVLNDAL

[9] = test system: Vero; experiment: host cell cytotoxicity of antiviral hits, dose response, cytotoxicity control for West Nile virus antiviral project, secondary assay (AID 1650); assay type: functional; settings: Chlorocebus sabaeus
[10] = cytotoxicity in HEK-293T cells, dose response, cytotoxicity control for TCR NF-kB inhibitor project, luminescence, T-cell screen hits (AID 489026); assay type: functional, cell-based;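 also: cells exposed to compound about 14 hours before the viability readout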
[11] = molecular target: Mitogen-activated protein kinase 10 (Homo sapiens, UniProt P53779); experiment: Dose response biochemical screening assay for inhibitors of c-Jun N-Terminal Kinase 3 (JNK3). [Related pubchem assays: 746 ]
Mitogen-activated protein kinase 10, sequence (P53779 whole entry): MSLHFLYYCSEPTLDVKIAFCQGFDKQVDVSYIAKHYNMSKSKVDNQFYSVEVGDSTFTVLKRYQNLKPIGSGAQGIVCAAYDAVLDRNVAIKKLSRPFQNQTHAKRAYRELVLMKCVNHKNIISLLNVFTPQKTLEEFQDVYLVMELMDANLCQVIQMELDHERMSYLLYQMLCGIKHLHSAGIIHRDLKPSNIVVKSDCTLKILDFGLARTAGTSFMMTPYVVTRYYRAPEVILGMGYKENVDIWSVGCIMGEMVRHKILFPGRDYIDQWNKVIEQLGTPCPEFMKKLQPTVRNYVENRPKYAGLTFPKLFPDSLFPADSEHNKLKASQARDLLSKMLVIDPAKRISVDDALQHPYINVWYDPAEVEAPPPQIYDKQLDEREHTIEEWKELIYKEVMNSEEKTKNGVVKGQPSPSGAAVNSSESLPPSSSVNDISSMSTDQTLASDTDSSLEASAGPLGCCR

[12] = molecular target: T6, Aryl hydrocarbon receptor (Homo sapiens, UniProt P35869); experiment: Luminescence-based cell-based high throughput dose response assay for activators of the Aryl Hydrocarbon Receptor (AHR). [Related pubchem assays: 2796 (Primary screen (AHR activators in singlicate)), 2845 (Confirmation screen (AHR activators in triplicate)), 434939 (Counterscreen (PXR activators in triplicate)), 2804 (Summary (AHR activators))]; assay type: ADME
T6 sequence (P35869 whole entry): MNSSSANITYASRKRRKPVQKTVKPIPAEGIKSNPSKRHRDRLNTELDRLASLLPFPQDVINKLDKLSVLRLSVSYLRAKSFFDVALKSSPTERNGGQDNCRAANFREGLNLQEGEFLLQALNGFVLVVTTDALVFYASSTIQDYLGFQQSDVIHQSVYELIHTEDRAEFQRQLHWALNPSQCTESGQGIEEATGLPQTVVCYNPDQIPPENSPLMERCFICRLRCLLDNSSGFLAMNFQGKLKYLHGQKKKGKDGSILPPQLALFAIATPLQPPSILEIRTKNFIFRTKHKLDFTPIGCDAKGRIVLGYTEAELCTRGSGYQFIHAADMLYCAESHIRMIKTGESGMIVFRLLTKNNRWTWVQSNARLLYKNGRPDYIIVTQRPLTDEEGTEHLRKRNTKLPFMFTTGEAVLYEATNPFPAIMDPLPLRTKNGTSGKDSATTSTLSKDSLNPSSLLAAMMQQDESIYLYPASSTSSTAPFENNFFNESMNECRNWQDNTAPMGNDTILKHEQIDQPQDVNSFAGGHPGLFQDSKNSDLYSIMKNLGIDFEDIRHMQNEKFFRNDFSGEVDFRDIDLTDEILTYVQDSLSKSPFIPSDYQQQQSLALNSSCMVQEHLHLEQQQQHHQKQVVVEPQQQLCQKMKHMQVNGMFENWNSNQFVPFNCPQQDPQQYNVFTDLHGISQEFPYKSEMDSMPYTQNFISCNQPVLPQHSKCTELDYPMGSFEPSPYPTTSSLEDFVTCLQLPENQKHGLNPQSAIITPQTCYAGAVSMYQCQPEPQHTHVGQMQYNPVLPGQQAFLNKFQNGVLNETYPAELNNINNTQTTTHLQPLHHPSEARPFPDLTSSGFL

[13] = growth suppression of PTEN-null colon cells, dose response, cell-based, HCT116 PTEN knockout (AID 1047); assay type: functional;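 also: HCT116 colon tumor cells with PTEN knocked out; cells exposed to compound for 60 hours before readout; potency for loss of cell viability measured by luminescence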
[14] = growth suppression of beta-catenin-knockout colon cells, dose response, cell-based, HCT116, human colon tumor (AID 1045); assay type: functional;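 also: HCT116 colon tumor cells with beta catenin knocked out; cells exposed to compound for 60 hours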
[15] = test system: HT-1080; experiment: cytotoxicity in HT1080 fibrosarcoma cells, cell-based, fluorescence readout (AID 620); assay type: functional; settings: Homo sapiens
[16] = molecular target: Luciferin 4-monooxygenase (Photinus pyralis, UniProt P08659); experiment: Counter Screen for Luciferase-based Assay Positives. [Related pubchem assays: 620, 618, 411 ]
Luciferin 4-monooxygenase, sequence (P08659 whole entry): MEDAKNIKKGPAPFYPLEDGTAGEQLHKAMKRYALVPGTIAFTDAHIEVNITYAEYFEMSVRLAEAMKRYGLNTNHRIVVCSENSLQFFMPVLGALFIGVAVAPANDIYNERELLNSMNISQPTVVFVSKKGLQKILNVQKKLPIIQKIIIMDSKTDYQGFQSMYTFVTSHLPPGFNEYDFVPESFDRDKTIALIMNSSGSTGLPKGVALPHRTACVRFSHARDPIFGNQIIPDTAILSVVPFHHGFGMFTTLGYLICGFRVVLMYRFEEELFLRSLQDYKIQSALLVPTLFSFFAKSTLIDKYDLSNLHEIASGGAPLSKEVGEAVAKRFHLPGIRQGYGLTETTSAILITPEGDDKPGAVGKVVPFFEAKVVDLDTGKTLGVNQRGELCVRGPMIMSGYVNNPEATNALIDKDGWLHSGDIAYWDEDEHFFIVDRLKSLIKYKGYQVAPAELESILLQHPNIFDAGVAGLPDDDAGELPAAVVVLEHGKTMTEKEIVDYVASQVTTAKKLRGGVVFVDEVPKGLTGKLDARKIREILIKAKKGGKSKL

[17] = molecular target: T7, Ubiquitin-conjugating enzyme E2 N (Homo sapiens, UniProt P61088); assay type: functional;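 also: Dose-response confirmation in a TR-FRET assay detecting UBC13-driven polyubiquitin chain formation, inhibition measured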
T7 sequence (P61088 whole entry): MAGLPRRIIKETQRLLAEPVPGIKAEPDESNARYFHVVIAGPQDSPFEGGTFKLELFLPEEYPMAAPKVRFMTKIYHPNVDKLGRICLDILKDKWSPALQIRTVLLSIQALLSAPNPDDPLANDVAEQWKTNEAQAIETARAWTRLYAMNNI

## O=C(O)C1(c2ccc(Cl)cc2)CCC1
[1]
  IC50: > 100 µM (not active)

## O=C(CNC(=O)c1ccc(-c2ccccc2)cc1)OCc1c(F)cccc1Cl
[2]
  IC50: 11.7 µM (not active)
[3]
  IC50: > 111 µM (not active)

## Cn1c(=O)[nH]c(=O)c2c1nc1n2CCCN1CCc1ccccc1
[4]
  IC50: > 50 µM (not active)
[5]
  IC50: > 50 µM (not active)

## COc1cc(/C=N/Nc2ccc(Cl)c(C(=O)O)c2)ccc1OC(=O)c1cccs1
[6]
  IC50: 1.32 µM (active)
[7]
  AC50: 5.23 µM (active)
[8]
  IC50: 55.5 µM (active)

## CCc1ccc(NC(=O)C(=O)NCCN2CCN(Cc3ccc([N+](=O)[O-])cc3)CC2)cc1
[9]
  CC50: 37.7 µM (active)

## COc1ccc(Cl)cc1NC(=O)CN1CCN(S(=O)(=O)c2ccc(F)cc2)CC1
[2]
  IC50: 16.4 µM (not active)
[3]
  IC50: > 111 µM (not active)

## O=c1[nH]c(CN2CCN(S(=O)(=O)c3ccc4ccccc4c3)CC2)nc2ccccc12
[2]
  IC50: 5.56 µM (active)
[3]
  IC50: > 111 µM (not active)

## CN(C)c1ccc(-c2nn3c(-c4ccccc4Cl)nnc3s2)cc1
[10]
  IC50: > 80 µM (inactive)
[1]
  IC50: > 100 µM (not active)

## COc1cc(NC(=O)C2CC(c3cccc(OC)c3OC)=NO2)cc(OC)c1OC (configuration not stated)
[11]
  IC50: 4.19 µM (active)

## O=C(NC(=S)Nc1ccc(F)c(Cl)c1)C1CC1
[12]
  EC50: 0.861 µM (active)

## CC(NC(=O)c1ccco1)C(c1cccs1)N1CCOCC1 (configuration not stated)
[1]
  IC50: > 100 µM (not active)

## CC(=O)OCC1=C(C(=O)O)N2C(=O)[C@@H](NC(=O)Cc3cccs3)[C@H]2SC1 [CEPHALOTHIN SODIUM]
[1]
  IC50: 0.92 µM (active)

## CCCCn1c(=N)n(CC(O)COc2cccc(C)c2)c2ccccc21 (configuration not stated)
[9]
  CC50: 40.2 µM (active)
[13]
  EC50: 5.56 µM (active)
[14]
  EC50: 5.24 µM (active)

## Cc1ccccc1-n1nc(C)c2cc(C(=O)NCc3cccnc3)sc21
[11]
  IC50: 10.6 µM (not active)

## CCN=c1ccc(Br)cc(C(=O)/C=C/c2ccccc2Cl)c1O
[5]
  IC50: 3.11 µM (active)

## C/C(=N\NC(=O)c1cccnc1)c1ccc(-n2ccnc2)cc1
[12]
  EC50: 5.46 µM (active)

## COc1ccc(-n2ncc3c(NC(C)C)ncnc32)cc1
[15]
  EC50: > 50 µM (not active)
[16]
  EC50: < 0.2 µM (active)

## C/C(=N\NC(=O)c1c(Br)cnn1C)c1ccc(NC(=O)c2ccc(F)cc2)cc1
[2]
  IC50: 3.62 µM (active)
[3]
  IC50: > 111 µM (not active)

## CC1CC(C)CN(CCCNC(=O)C2CCN(c3ncnc4c3sc3cccc(F)c34)CC2)C1 (configuration not stated)
[9]
  CC50: > 100 µM (active)
[17]
  IC50: > 20 µM (inactive)

## N#C/C(=C/c1ccccc1)c1nn(CCO)c(N)c1C#N
[12]
  EC50: 6.55 µM (active)
